This is an account of results in paper PMC9418190, “UDP-glucose, cereblon-dependent proinsulin degrader” (Scientific Reports, 2022).

The target in this assay is T1, cereblon (Mus musculus, UniProt Q8C7D2).
T1 construct: gene Crbn
T1 sequence (Q8C7D2 1-445): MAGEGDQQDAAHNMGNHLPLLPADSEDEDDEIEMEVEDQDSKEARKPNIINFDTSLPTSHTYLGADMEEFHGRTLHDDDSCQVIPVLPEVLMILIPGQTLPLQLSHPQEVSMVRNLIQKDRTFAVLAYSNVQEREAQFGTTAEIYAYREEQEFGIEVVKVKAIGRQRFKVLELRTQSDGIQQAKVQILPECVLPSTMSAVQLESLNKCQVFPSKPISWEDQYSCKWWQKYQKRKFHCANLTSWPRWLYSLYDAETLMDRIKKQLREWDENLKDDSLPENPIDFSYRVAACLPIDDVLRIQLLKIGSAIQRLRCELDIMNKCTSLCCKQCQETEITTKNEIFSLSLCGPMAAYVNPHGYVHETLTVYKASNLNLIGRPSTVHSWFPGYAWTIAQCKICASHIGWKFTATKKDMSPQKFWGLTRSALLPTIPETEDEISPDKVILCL
Briefly: dose-dependent protection of proinsulin from cereblon-dependent degradation in NIT1 cells. In kind it is cell-based.

Take `O=C1CCC(=O)N1` [succinimide]: the “dose-dependent protection of proinsulin from cereblon-dependent degradation in N” value was “In fact, succinimide binds to cereblon, protects proinsulin degradation from proinsulin degrader X in a dose-dependent manner”.
